We go through three molecules from publication PMC5679629, “Flavin-containing monooxygenase 3 (FMO3) role in busulphan metabolic pathway” (PLoS ONE, 2017).

Details of data set [1]: method as in PMID 2886318. To be noted: rats, cited from earlier work.
Data set [2] is described as follows: Busulphan and THT plasma kinetics in a patient treated concomitantly with voriconazole. In kind it is in vivo, human. The note with it: Bu 2mg/kg b.i.d. with concomitant voriconazole. The procedure: In order to confirm the contribution of FMO3 to human Bu kinetics, blood samples were collected (routinely) from a patient who underwent stem cell transplantation and was conditioned according to the hospital transplantation protocol i.e. high dose of Bu (2mg/kg b.i.d.) for four days followed with two days of cyclophosphamide (60mg/kg). […] Voriconazole was administered, according to the hospital clinical protocol, for the treatment of an acute fungal infection.
Samples were taken for therapeutic drug monitoring (TDM) at several time points after the first, third and fifth doses. Blood was collected into EDTA vacutainer tubes, plasma was separated by centrifugation at 1200 g and stored at -20°C until analysis of Bu and THT [18].

A short description of data set [3]: Busulphan kinetics in mice (alone, after PTU pretreatment, or with high-dose THT). The note with it: for AUC / Cmax: male, C57BL/6N, mouse, plasma, ip, 25 mg/kg, mean.
Experimental: (§4) Male C57BL/6N mice (6–8 weeks old) were purchased from Charles River (Cologne, Germany). The mice were allowed to acclimatize to the surroundings for 2 weeks with a 12h dark/12h light cycle and randomized for treatment. Standard laboratory chow and water ad libitum was introduced.
(§5) To study Bu and THT kinetics, Bu (Sigma-Aldrich, Steinheim, Germany) was administered i.p. (25mg/kg or 100μmol/kg) as a 2mM solution in DMSO (Sigma-Aldrich, Stockholm, Sweden) [21]. THT was also prepared as a 2mM solution in DMSO and the dose given was equimolar to the Bu treatment (i.e. 100μmol/kg or 8.8 mg/kg). Upon injection, samples were diluted with physiological NaCl solution to a final DMSO concentration of 10% in the dosing solution. At the appropriate time points (10min, 30min, 1h, 2h, 4h, 6h and 8h), mice (three mice at each time point) were anesthetized using 2% isoflurane and the blood samples were collected by heart puncture. Mice were euthanized by cervical dislocation. Plasma was separated and stored at -20°C.
(§6) PTU (3mg/kg) was dissolved in DMSO and diluted with physiological NaCl solution and then injected into the mice once daily followed by Bu or THT injections on the 4th day. The mice were euthanized and plasma samples prepared as in the previous experiment.
(§7) To detect the effect of high THT concentrations on Bu metabolism, a third group of mice was injected with both Bu (100μmol/kg) and a high dose of THT (17.6mg/kg or 200μmol/kg) and samples prepared as described previously. All experiments including negative controls (mice injected with 10% DMSO in NaCl solution) and mice injected with PTU alone were performed in triplicates.
(§8) To quantify Bu, samples were extracted according to the method reported previously by Hassan et al. [24]. Briefly, 500 μL of plasma were diluted with 500 μL of water. Fifty microliters of the internal standard (1,5-bis(methanesulfonoxy)pentane; 38.5 μM) were added, followed by the addition of 1 mL of sodium iodide (8M, Merck, Darmstadt, Germany) and 400μL of n-heptane (Merck, Darmstadt, Germany). The tubes were placed under magnetic stirring in a water bath (70°C) for 45 min. During the reaction, busulphan and 1,5-bis(methanesulfonoxy)pentane were converted to 1,4-diiodobutane and 1,5-diiodopentane respectively and subsequently extracted with n-heptane [25]. The conversion of busulphan and 1,5-bis(methanesulfonoxy)pentane to 1,4-diiodobutane and 1,5-diiodopentane was over 90% [24]. The organic phase was analyzed by GC-MS [18]. THT was quantified as described previously and the method was validated for use with mouse plasma before measuring both Bu and THT [19, 20].
(§9) Kinetic parameters from in vivo studies were estimated using WinNonLin software (standard edition, version 2.0), while Microsoft Excel and SigmaPlot software (version 12.5, Systat software, Inc.) were utilized for in vitro kinetics.
Another data set concerns FMO3 mRNA. Put plainly: Gene expression in patients conditioned with busulphan (gene array, qRT-PCR). Format: in vivo, human. To be noted: oral Bu 2mg/kg b.i.d. for 4 days, normalized to GAPDH. The procedure: (§1) FMO3 mRNA expression was studied in twelve patients undergoing HSCT at the Center for Allogeneic Stem Cell Transplantation (CAST), Karolinska University Hospital-Huddinge, Sweden. The study was approved by the ethical committee of Karolinska Institutet (616/03) in accordance with the Helsinki Declaration of 1975 and with informed consent from each patient or their guardian. All patients were treated with oral Bu, administered at a dose of 2mg/kg (8μmol/kg) b.i.d. for 4 days followed by an i.v. infusion of cyclophosphamide (Cy) 60mg/kg/day (230μmol/kg/day) once daily for 2 days before the stem cell infusion.
(§2) Blood samples for mRNA quantification were collected in PAXgene^TM blood RNA tubes (BD, Stockholm, Sweden) prior to the start of Bu treatment and after the last Bu dose.
(§3) RNA was extracted from the mononuclear cells using QuickPreps^TM Total RNA Extraction Kit (GE Life Sciences, Uppsala, Sweden). RNA (1μg) was reverse transcribed to complementary DNA (cDNA) using the TaqMan^TM Kit (Applied Biosystems, Roche, NJ, USA).
Purified mRNA was subjected to analysis of global gene expression by using NimbleGen microarrays (Roche Diagnostics Scandinavia, Bromma, Sweden). Data were analyzed by Genespring GX (Agilent, CA, USA). Quantile normalization was used on the probe expression data generated using the Robust Multichip Average algorithm. […]
(Real-time PCR tracks product formation cycle by cycle.)

The conditions of data set [4]: cited from earlier work.
The subject of a further data set is GSTA1 mRNA. Description: Gene expression in patients conditioned with busulphan (gene array). Format: in vivo, human. The note with it: oral Bu 2mg/kg b.i.d. for 4 days. As to the method:
as §1, §2, §3
Purified mRNA was subjected to analysis of global gene expression by using NimbleGen microarrays (Roche Diagnostics Scandinavia, Bromma, Sweden). Data were analyzed by Genespring GX (Agilent, CA, USA). Quantile normalization was used on the probe expression data generated using the Robust Multichip Average algorithm.

The next data set is described as follows: in vivo. To be noted: male, C57BL/6N, mouse, plasma, ip, 25 mg/kg.
The mark [5] stands for this setting: within 72 hours of administration.
Where [6] appears, read: Group 1: mice, Bu 25mg/kg i.p. alone.
Setting [7] is: Group 2: mice, Bu 25mg/kg i.p. after PTU 3mg/kg i.p. once daily for 3 days.

Each structure is given as a SMILES string.

Experimental for in vivo: as §4, §5, §6, §7, §8, §9

As to `O=S1(=O)CCC(O)C1` (stereo not shown) [3-OH-sulfolane, 3-hydroxysulfolane], the “share of Bu excreted in urine as this metabolite” value in data set [1] (setting [5]) is on record as 39%.

Turning to `CS(=O)(=O)OCCCCOS(C)(=O)=O` [Bu, Busulphan], the “Bu levels versus same dose of Bu administered alone” value in data set [2] was “higher than expected”. For the same molecule, the “Bu clearance versus a patient treated with Bu alone” value in data set [2] (P<0.05) is “slower”. The AUC (as a rule, the area under the concentration-time curve, a measure of exposure) in data set [3] (setting [6]) turned out to be 44.3 µM·h; in data set [3] (setting [7]) it was 65.3 µM·h; in “in vivo” it was 65.5 µM·h. For the same molecule, the values for the Cmax (in data set [3] (setting [6]); in data set [3] (setting [7]); in the data set “in vivo”) were 7.47 µM, 25.5 µM and 16.5 µM, respectively. Further, the “Bu plasma concentrations and Bu exposure (AUC) versus Bu alone” value in data set [3] (mice treated with FMO3 inhibitor PTU before Bu administration) is “significantly (P<0.05, t-test) higher”. In data set [3] (mice, concomitant administration of THT and Bu), the “levels of Bu versus Bu alone” value is “higher levels”. For the same molecule, the “FMO3 mRNA after Bu conditioning versus before” value in the data set on FMO3 mRNA is recorded as “significant up-regulation”. The “decrease of Bu clearance” value in data set [4] (child with AML, after two days concomitant metronidazole) is listed as 46%. In data set [4] (child with AML, concomitant metronidazole), the “daily AUC in excess of the predicted” value is given as 86%. Further, in data set [4] (patients undergoing HSCT), the “mean Bu trough levels with concomitant metronidazole” value is reported as “two-fold higher”. In addition, the “GSTA1 mRNA after Bu conditioning versus before” value in the data set on GSTA1 mRNA is “significantly up-regulated”. In addition, in data set [1], the “Bu excreted in the urine as unchanged drug” value is on record as 2%. The “Bu excreted in the form of its subsequent metabolites” value in data set [1] (setting [5]) is listed as “more than 70%”.

As for `[O-][S+]1CCCC1` [THT 1-oxide, tetrahydrothiophene 1-oxide], the “share of Bu excreted in urine as this metabolite” value in data set [1] (setting [5]) is recorded as 20%.
